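Here, GI50 denotes the concentration required for 50% inhibition of growth. At the TGI there is no net growth.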
Legend:
Assay in all cases: NCI anticancer screen, dose series, 384-well format
UACC-62 melanoma = tested on: UACC-62 melanoma
SK-MEL-5 melanoma = tested on: SK-MEL-5 melanoma
LOX IMVI melanoma = tested on: LOX IMVI melanoma
DU-145 prostate = tested on: DU-145 prostate
SK-OV-3 ovarian = tested on: SK-OV-3 ovarian
NCI-H23 lung = tested on: NCI-H23 lung
UACC-257 melanoma = tested on: UACC-257 melanoma
SF-268 CNS = tested on: SF-268 CNS
RPMI-8226 leukemia = tested on: RPMI-8226 leukemia
ACHN renal = tested on: ACHN renal
MDA-MB-231 breast = tested on: MDA-MB-231 breast
NCI/ADR-RES ovarian = tested on: NCI/ADR-RES ovarian
COLO 205 colon = tested on: COLO 205 colon
HCT-15 colon = tested on: HCT-15 colon
OVCAR-5 ovarian = tested on: OVCAR-5 ovarian
SR leukemia = tested on: SR leukemia
EKVX NSCLC = tested on: EKVX NSCLC
MCF7 breast = tested on: MCF7 breast
NCI-H460 NSCLC = tested on: NCI-H460 NSCLC
NCI-H322M lung = tested on: NCI-H322M lung
SNB-19 CNS = tested on: SNB-19 CNS
IGROV1 ovarian = tested on: IGROV1 ovarian
HOP-62 NSCLC = tested on: HOP-62 NSCLC
KM12 colon = tested on: KM12 colon
MDA-MB-468 breast = tested on: MDA-MB-468 breast
HOP-92 NSCLC = tested on: HOP-92 NSCLC
SNB-75 CNS = tested on: SNB-75 CNS
MOLT-4 leukemia = tested on: MOLT-4 leukemia
SK-MEL-28 melanoma = tested on: SK-MEL-28 melanoma
OVCAR-8 ovarian = tested on: OVCAR-8 ovarian
SF-295 CNS = tested on: SF-295 CNS
CAKI-1 renal = tested on: CAKI-1 renal
HCT-116 colon = tested on: HCT-116 colon
TK-10 renal = tested on: TK-10 renal
786-0 renal = tested on: 786-0 renal
OVCAR-4 ovarian = tested on: OVCAR-4 ovarian
RXF 393 renal = tested on: RXF 393 renal
HCC-2998 colon = tested on: HCC-2998 colon
SW-620 colon = tested on: SW-620 colon
MDA-MB-435 melanoma = tested on: MDA-MB-435 melanoma
NCI-H226 lung = tested on: NCI-H226 lung
SF-539 CNS = tested on: SF-539 CNS
MALME-3M melanoma = tested on: MALME-3M melanoma
UO-31 renal = tested on: UO-31 renal
NCI-H522 lung = tested on: NCI-H522 lung
U251 glioblastoma = tested on: U251 glioblastoma
HS 578T breast = tested on: HS 578T breast
HL-60(TB) leukemia = tested on: HL-60(TB) leukemia
PC-3 prostate = tested on: PC-3 prostate
A549 NSCLC = tested on: A549 NSCLC
OVCAR-3 ovarian = tested on: OVCAR-3 ovarian
M14 melanoma = tested on: M14 melanoma
T-47D breast = tested on: T-47D breast
SN12C renal = tested on: SN12C renal
BT-549 breast = tested on: BT-549 breast
A498 renal = tested on: A498 renal

C#CCC(Cc1cnc2nc(N)nc(N)c2n1)c1ccc(C(=O)N[C@@H](CCC(=O)O)C(=O)O)cc1 (some centres not stated)
GI50 (UACC-62 melanoma): < 10 nM
TGI (UACC-62 melanoma): < 10 nM
GI50 (SK-MEL-5 melanoma): < 10 nM
TGI (SK-MEL-5 melanoma): < 10 nM
GI50 (LOX IMVI melanoma): < 10 nM
TGI (LOX IMVI melanoma): < 10 nM
GI50 (DU-145 prostate): < 10 nM
TGI (DU-145 prostate): > 100000 nM
GI50 (SK-OV-3 ovarian): < 10 nM
TGI (SK-OV-3 ovarian): < 10 nM
GI50 (NCI-H23 lung): < 10 nM
TGI (NCI-H23 lung): < 10 nM
GI50 (UACC-257 melanoma): < 10 nM
TGI (UACC-257 melanoma): < 10 nM
GI50 (SF-268 CNS): < 10 nM
TGI (SF-268 CNS): < 10 nM
GI50 (RPMI-8226 leukemia): < 10 nM
TGI (RPMI-8226 leukemia): < 10 nM
GI50 (ACHN renal): < 10 nM
TGI (ACHN renal): < 10 nM
GI50 (MDA-MB-231 breast): 905 nM
TGI (MDA-MB-231 breast): 2410 nM
GI50 (NCI/ADR-RES ovarian): < 10 nM
TGI (NCI/ADR-RES ovarian): < 10 nM
GI50 (COLO 205 colon): < 10 nM
TGI (COLO 205 colon): < 10 nM
GI50 (HCT-15 colon): < 10 nM
TGI (HCT-15 colon): > 100000 nM
GI50 (OVCAR-5 ovarian): < 10 nM
TGI (OVCAR-5 ovarian): < 10 nM
GI50 (SR leukemia): < 10 nM
TGI (SR leukemia): < 10 nM
GI50 (EKVX NSCLC): < 10 nM
TGI (EKVX NSCLC): < 10 nM
GI50 (MCF7 breast): < 10 nM
TGI (MCF7 breast): > 100000 nM
GI50 (NCI-H460 NSCLC): < 10 nM
TGI (NCI-H460 NSCLC): > 100000 nM
GI50 (NCI-H322M lung): < 10 nM
TGI (NCI-H322M lung): < 10 nM
GI50 (SNB-19 CNS): < 10 nM
TGI (SNB-19 CNS): < 10 nM
GI50 (IGROV1 ovarian): < 10 nM
TGI (IGROV1 ovarian): < 10 nM
GI50 (HOP-62 NSCLC): < 10 nM
TGI (HOP-62 NSCLC): < 10 nM
GI50 (KM12 colon): < 10 nM
TGI (KM12 colon): > 100000 nM
GI50 (MDA-MB-468 breast): < 10 nM
TGI (MDA-MB-468 breast): < 10 nM
GI50 (HOP-92 NSCLC): < 10 nM
TGI (HOP-92 NSCLC): < 10 nM
GI50 (SNB-75 CNS): < 10 nM
TGI (SNB-75 CNS): < 10 nM
GI50 (MOLT-4 leukemia): < 10 nM
TGI (MOLT-4 leukemia): < 10 nM
GI50 (SK-MEL-28 melanoma): < 10 nM
TGI (SK-MEL-28 melanoma): < 10 nM
GI50 (OVCAR-8 ovarian): < 10 nM
TGI (OVCAR-8 ovarian): < 10 nM
GI50 (SF-295 CNS): < 10 nM
TGI (SF-295 CNS): < 10 nM
GI50 (CAKI-1 renal): < 10 nM
TGI (CAKI-1 renal): < 10 nM
GI50 (HCT-116 colon): < 10 nM
TGI (HCT-116 colon): > 100000 nM
GI50 (TK-10 renal): < 10 nM
TGI (TK-10 renal): < 10 nM
GI50 (786-0 renal): < 10 nM
TGI (786-0 renal): < 10 nM
GI50 (OVCAR-4 ovarian): < 10 nM
TGI (OVCAR-4 ovarian): < 10 nM
GI50 (RXF 393 renal): < 10 nM
TGI (RXF 393 renal): < 10 nM
GI50 (HCC-2998 colon): < 10 nM
TGI (HCC-2998 colon): > 100000 nM
GI50 (SW-620 colon): < 10 nM
TGI (SW-620 colon): < 10 nM
GI50 (MDA-MB-435 melanoma): < 10 nM
TGI (MDA-MB-435 melanoma): < 10 nM
GI50 (NCI-H226 lung): < 10 nM
TGI (NCI-H226 lung): < 10 nM
GI50 (SF-539 CNS): < 10 nM
TGI (SF-539 CNS): < 10 nM
GI50 (MALME-3M melanoma): < 10 nM
TGI (MALME-3M melanoma): < 10 nM
GI50 (UO-31 renal): < 10 nM
TGI (UO-31 renal): < 10 nM
GI50 (NCI-H522 lung): < 10 nM
TGI (NCI-H522 lung): < 10 nM
GI50 (U251 glioblastoma): < 10 nM
TGI (U251 glioblastoma): < 10 nM
GI50 (HS 578T breast): < 10 nM
TGI (HS 578T breast): < 10 nM
GI50 (HL-60(TB) leukemia): < 10 nM
TGI (HL-60(TB) leukemia): < 10 nM
GI50 (PC-3 prostate): < 10 nM
TGI (PC-3 prostate): < 10 nM
GI50 (A549 NSCLC): < 10 nM
TGI (A549 NSCLC): < 10 nM
GI50 (OVCAR-3 ovarian): < 10 nM
TGI (OVCAR-3 ovarian): < 10 nM
GI50 (M14 melanoma): < 10 nM
TGI (M14 melanoma): < 10 nM
GI50 (T-47D breast): < 10 nM
TGI (T-47D breast): < 10 nM
GI50 (SN12C renal): < 10 nM
TGI (SN12C renal): < 10 nM
GI50 (BT-549 breast): < 10 nM
TGI (BT-549 breast): < 10 nM
GI50 (A498 renal): < 10 nM
TGI (A498 renal): < 10 nM

Reference: PubChem BioAssay (NCI)
